How the values were obtained:
Test in all cases: relative viability (nuclei count vs DMSO), 5 days (fraction); higher = more cells survive
Adavosertib + Linsitinib = compound: C=CCn1c(=O)c2cnc(Nc3ccc(N4CCN(C)CC4)cc3)nc2n1-c1cccc(C(C)(C)O)n1 [Adavosertib] + C[C@]1(O)C[C@@H](c2nc(-c3ccc4ccc(-c5ccccc5)nc4c3)c3c(N)nccn32)C1 [Linsitinib] (partner 1 µM)
Method in brief: (§1)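 The day after seeding in 1536-well plates, lung cancer cell lines were treated by pin tool with a single drug, or with a fixed anchor-drug dose together with five library-drug doses (not always all listed) in √10 steps. After 5 days, a combined fix-and-stain solution (final 0.05% Triton X-100, 1% formaldehyde, 1 ug/ml Hoechst) was added. Nuclei counted on 4× images gave relative viability as treated counts over vehicle counts, reported as the median of duplicate plates.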

Adavosertib + Dasatinib = compound: C=CCn1c(=O)c2cnc(Nc3ccc(N4CCN(C)CC4)cc3)nc2n1-c1cccc(C(C)(C)O)n1 [Adavosertib] + Cc1nc(Nc2ncc(C(=O)Nc3c(C)cccc3Cl)s2)cc(N2CCN(CCO)CC2)n1 [Dasatinib] (partner 0.075 µM)
Method in brief: as §1

Adavosertib + Pemetrexed = compound: C=CCn1c(=O)c2cnc(Nc3ccc(N4CCN(C)CC4)cc3)nc2n1-c1cccc(C(C)(C)O)n1 [Adavosertib] + Nc1nc2[nH]cc(CCc3ccc(C(=O)N[C@@H](CCC(=O)O)C(=O)O)cc3)c2c(=O)[nH]1 [Pemetrexed] (partner 0.2 µM)
Method in brief: as §1

Nelarabine + Lapatinib = compound: COc1nc(N)nc2c1ncn2[C@@H]1O[C@H](CO)[C@@H](O)[C@@H]1O [Nelarabine] + CS(=O)(=O)CCNCc1ccc(-c2ccc3ncnc(Nc4ccc(OCc5cccc(F)c5)c(Cl)c4)c3c2)o1 [Lapatinib] (partner 2 µM)
Method in brief: as §1

| Cell Line | relative viability (Adavosertib + Linsitinib; first compound 0.01 µM) | relative viability (Adavosertib + Linsitinib; first compound 0.03162 µM) | relative viability (Adavosertib + Linsitinib; first compound 0.1 µM) | relative viability (Adavosertib + Linsitinib; first compound 0.3162 µM) | relative viability (Adavosertib + Dasatinib; first compound 0.01 µM) | relative viability (Adavosertib + Dasatinib; first compound 0.03162 µM) | relative viability (Adavosertib + Dasatinib; first compound 0.1 µM) | relative viability (Adavosertib + Dasatinib; first compound 0.3162 µM) | relative viability (Adavosertib + Pemetrexed; first compound 0.03162 µM) | relative viability (Adavosertib + Pemetrexed; first compound 0.1 µM) | relative viability (Adavosertib + Pemetrexed; first compound 0.3162 µM) | relative viability (Nelarabine + Lapatinib; first compound 0.01 µM) | relative viability (Nelarabine + Lapatinib; first compound 0.03162 µM) | relative viability (Nelarabine + Lapatinib; first compound 0.1 µM) | relative viability (Nelarabine + Lapatinib; first compound 0.3162 µM) | relative viability (Nelarabine + Lapatinib; first compound 1 µM) | relative viability (Adavosertib + Pemetrexed; first compound 0.01 µM) |
| --- | --- | --- | --- | --- | --- | --- | --- | --- | --- | --- | --- | --- | --- | --- | --- | --- | --- |
| NCI-H2405 | 0.959 | 0.966 | 1 | 0.995 | 0.198 | 0.217 | 0.183 | 0.206 | 1.1 | 0.899 | 1.05 | 1.14 | 1.13 | 0.904 | 1.06 | 1.04 |  |
| NCI-H1915 | 1.11 | 1.12 | 1.14 | 1.17 | 0.325 | 0.315 | 0.352 | 0.293 | 0.464 | 0.346 | 0.259 | 1.19 | 0.867 | 1.01 | 1.09 | 0.997 | 0.528 |
| NCI-H1395 | 1.17 | 1.18 | 1.2 | 0.955 | 0.427 | 0.407 | 0.416 | 0.439 | 0.938 | 0.604 | 0.689 | 0.959 | 1.1 | 1.23 | 0.971 | 1.5 | 0.766 |
| LOU-NH91 | 1 | 0.938 | 0.964 | 0.871 | 0.539 | 0.565 | 0.622 | 0.513 | 0.371 | 0.338 | 0.36 | 0.817 | 0.633 | 0.692 | 0.775 | 0.788 | 0.371 |
| SW 1573 | 0.919 | 0.864 | 0.911 | 0.886 | 0.62 | 0.424 | 0.633 | 0.215 | 0.747 | 0.912 | 0.557 | 1.14 | 1.13 | 1.11 | 1.18 | 1.2 | 0.871 |
| NCI-H23 | 0.53 | 0.612 | 0.444 | 0.29 | 0.737 | 0.838 | 0.788 | 0.412 | 0.539 | 0.487 | 0.262 | 1.5 | 1.1 | 1.06 | 1.17 | 1.18 | 0.664 |
| NCI-H1993 | 0.769 | 0.793 | 0.797 | 0.749 | 0.63 | 0.503 | 0.719 | 0.618 | 0.517 | 0.608 | 0.629 | 0.836 | 0.774 | 0.81 | 0.67 | 0.785 | 0.57 |
| HARA | 0.907 | 1.06 | 0.98 | 0.97 | 0.258 | 0.249 | 0.283 | 0.338 | 0.22 | 0.229 | 0.191 | 0.971 | 0.666 | 0.719 | 0.808 | 0.767 | 0.244 |
| HCC-366 | 0.62 | 0.802 | 0.659 | 0.774 | 0.668 | 0.631 | 0.736 | 0.63 | 0.143 | 0.136 | 0.0818 | 1.46 | 0.952 | 1.23 | 1.2 | 1.17 | 0.227 |
| COR-L 105 | 0.818 | 1.13 | 0.976 | 0.906 | 0.285 | 0.308 | 0.331 | 0.246 | 1.07 | 1.07 | 0.916 | 0.362 | 0.306 | 0.374 | 0.285 | 0.368 | 0.976 |
| HCC-44 | 0.628 | 0.659 | 0.683 | 0.794 |  |  |  |  | 0.602 | 0.574 | 0.433 | 1.08 | 1.07 | 1.14 | 1.03 | 1.02 | 0.677 |
| NCI-H727 | 0.334 | 0.249 | 0.311 | 0.32 | 0.316 | 0.478 | 0.338 | 0.301 |  |  |  | 0.909 | 0.896 | 0.922 | 0.74 | 0.829 |  |
| EBC-1 | 0.91 | 0.962 | 0.994 | 1.18 |  |  |  |  |  |  |  | 0.177 | 0.205 | 0.188 | 0.215 | 0.197 |  |
| IA-LM | 0.687 | 0.749 | 0.692 | 0.807 |  |  |  |  |  |  |  | 1.01 | 0.74 | 0.829 | 0.9 | 0.932 |  |
| NCI-H1299 | 0.963 | 0.985 | 0.996 | 0.95 |  |  |  |  |  |  |  | 1 | 0.999 | 1.02 | 0.98 | 1 |  |
| NCI-H1703 | 1.05 | 0.822 | 1.01 | 0.414 |  |  |  |  |  |  |  | 1.65 | 1.33 | 1.42 | 1.05 | 1.11 |  |
| Calu-6 | 0.906 | 0.917 | 1.02 | 0.866 |  |  |  |  |  |  |  | 1.29 | 1.04 | 1.08 | 1.18 | 1.14 |  |
| NCI-H522 |  |  |  |  | 0.83 | 0.749 | 0.944 | 0.739 | 1.03 | 1.04 | 0.949 |  |  |  |  |  | 1.02 |
| NCI-H1650 |  |  |  |  | 0.306 | 0.293 | 0.305 | 0.216 | 0.366 | 0.281 | 0.278 | 0.882 | 0.834 | 0.783 | 0.831 | 0.826 | 0.387 |
| LCLC-103H | 1.07 | 1.02 | 1.14 | 1.07 | 0.422 | 0.44 | 0.435 | 0.356 | 0.462 | 0.427 | 0.449 |  |  |  |  |  | 0.445 |
| NCI-H1623 |  |  |  |  | 0.451 | 0.553 | 0.507 | 0.575 |  |  |  |  |  |  |  |  |  |
| NCI-H2342 |  |  |  |  | 0.3 | 0.345 | 0.338 | 0.289 | 0.826 | 0.764 | 0.844 |  |  |  |  |  | 0.754 |
| A549 | 0.654 | 0.553 | 0.634 | 0.52 |  |  |  |  |  |  |  | 1.13 | 1.09 | 0.926 | 0.896 | 0.921 |  |
| ABC-1 | 1.03 | 0.849 | 0.647 | 0.682 | 0.551 | 0.594 | 0.677 | 0.563 |  |  |  | 1.44 | 0.952 | 1.23 | 1.1 | 1.37 |  |
| ChaGo-K-1 |  |  |  |  | 0.641 | 0.602 | 0.56 | 0.535 | 0.255 | 0.258 | 0.257 |  |  |  |  |  | 0.271 |

From the supplement of paper PMC10307832
